Experimental data from ChEMBL document CHEMBL5724806, “Unraveling interindividual differences and functional consequences of gut microbial metabolism of immunosuppressants” (2024).

What was measured:
Type in all cases: ADME
[1] = (§1) The drug is tested on Eubacterium eligens strain: DSM3376 for biotransformation under anaerobic condition. The drug concentrations were measured over 6 timepoints collected between 0 and 12 hours of incubation by liquid-chromatography-coupled mass spectrometry (LC–MS); parameters: dose 5 uM, timepoint 0, 1.5, 3, 6, 9, 12 hours; conditions: lachnospira eligens, 5 µM
[2] = (§2) The drug is tested on Lactobacillus ruminis strain: ATCC25644 for biotransformation under microaerobic condition. The drug concentrations were measured over 6 timepoints collected between 0 and 12 hours of incubation by liquid-chromatography-coupled mass spectrometry (LC–MS); parameters: dose 5 uM, timepoint 0, 1.5, 3, 6, 9, 12 hours; conditions: ligilactobacillus ruminis, 5 µM
[3] = The drug is tested on Dorea formicigenerans strain: DSM3992 for biotransformation under anaerobic condition. The drug concentrations were measured over 6 timepoints collected between 0 and 12 hours of incubation by liquid-chromatography-coupled mass spectrometry (LC–MS); parameters: dose 5 uM, timepoint 0, 1.5, 3, 6, 9, 12 hours; conditions: 5 µM
[4] = The drug is tested on Gemella haemolysans strain: DSM107751 for biotransformation under microaerobic condition. The drug concentrations were measured over 6 timepoints collected between 0 and 12 hours of incubation by liquid-chromatography-coupled mass spectrometry (LC–MS); parameters: dose 5 uM, timepoint 0, 1.5, 3, 6, 9, 12 hours; conditions: 5 µM
[5] = The drug is tested on Enterococcus faecalis strain: ATCC29212 for biotransformation under anaerobic condition. The drug concentrations were measured over 6 timepoints collected between 0 and 12 hours of incubation by liquid-chromatography-coupled mass spectrometry (LC–MS); parameters: dose 5 uM, timepoint 0, 1.5, 3, 6, 9, 12 hours; conditions: 5 µM
[6] = as §1, with “the gut metagenome community of A-09 with ENA study accession number: PRJEB31790” for “Eubacterium eligens strain: DSM3376”, “7” for “6”; parameters: dose 5 uM, timepoint 0, 0.75, 1.5, 3, 6, 9, 12 hours; conditions: 5 µM
[7] = The drug is tested on Bacteroides fragilis strain: DSM2151 for biotransformation under anaerobic condition. The drug concentrations were measured over 6 timepoints collected between 0 and 12 hours of incubation by liquid-chromatography-coupled mass spectrometry (LC–MS); parameters: dose 5 uM, timepoint 0, 1.5, 3, 6, 9, 12 hours; conditions: 5 µM
[8] = as §2, with “the gut metagenome community of P-01 with ENA study accession number: PRJEB31790” for “Lactobacillus ruminis strain: ATCC25644”, “7” for “6”; parameters: dose 5 uM, timepoint 0, 0.75, 1.5, 3, 6, 9, 12 hours; conditions: 5 µM
[9] = The drug is tested on Eubacterium hallii strain: DSM3353 for biotransformation under anaerobic condition. The drug concentrations were measured over 6 timepoints collected between 0 and 12 hours of incubation by liquid-chromatography-coupled mass spectrometry (LC–MS); parameters: dose 5 uM, timepoint 0, 1.5, 3, 6, 9, 12 hours; conditions: anaerobutyricum hallii, 5 µM
[10] = The drug is tested on Lactobacillus fermentum strain: DSM20052 for biotransformation under microaerobic condition. The drug concentrations were measured over 6 timepoints collected between 0 and 12 hours of incubation by liquid-chromatography-coupled mass spectrometry (LC–MS); parameters: dose 5 uM, timepoint 0, 1.5, 3, 6, 9, 12 hours; conditions: limosilactobacillus fermentum, 5 µM
[11] = The drug is tested on Clostridium scindens strain: DSM5676 for biotransformation under anaerobic condition. The drug concentrations were measured over 6 timepoints collected between 0 and 12 hours of incubation by liquid-chromatography-coupled mass spectrometry (LC–MS); parameters: dose 5 uM, timepoint 0, 1.5, 3, 6, 9, 12 hours; conditions: 5 µM
[12] = The drug is tested on Gemella haemolysans strain: DSM107751 for biotransformation under anaerobic condition. The drug concentrations were measured over 6 timepoints collected between 0 and 12 hours of incubation by liquid-chromatography-coupled mass spectrometry (LC–MS); parameters: dose 5 uM, timepoint 0, 1.5, 3, 6, 9, 12 hours; conditions: 5 µM
[13] = The drug is tested on Bacteroides caccae strain: DSM19024 for biotransformation under anaerobic condition. The drug concentrations were measured over 6 timepoints collected between 0 and 12 hours of incubation by liquid-chromatography-coupled mass spectrometry (LC–MS); parameters: dose 5 uM, timepoint 0, 1.5, 3, 6, 9, 12 hours; conditions: 5 µM
[14] = The drug is tested on Lactobacillus gasseri strain: DSM20243 for biotransformation under microaerobic condition. The drug concentrations were measured over 6 timepoints collected between 0 and 12 hours of incubation by liquid-chromatography-coupled mass spectrometry (LC–MS); parameters: dose 5 uM, timepoint 0, 1.5, 3, 6, 9, 12 hours; conditions: 5 µM
[15] = The drug is tested on Streptococcus anginosus strain: DSM20563 for biotransformation under anaerobic condition. The drug concentrations were measured over 6 timepoints collected between 0 and 12 hours of incubation by liquid-chromatography-coupled mass spectrometry (LC–MS); parameters: dose 5 uM, timepoint 0, 1.5, 3, 6, 9, 12 hours; conditions: 5 µM
[16] = The drug is tested on Clostridium ramosum strain: DSM1402 for biotransformation under anaerobic condition. The drug concentrations were measured over 6 timepoints collected between 0 and 12 hours of incubation by liquid-chromatography-coupled mass spectrometry (LC–MS); parameters: dose 5 uM, timepoint 0, 1.5, 3, 6, 9, 12 hours; conditions: thomasclavelia ramosa, 5 µM
[17] = as §1, with “the gut metagenome community of A-06 with ENA study accession number: PRJEB31790” for “Eubacterium eligens strain: DSM3376”, “7” for “6”; parameters: dose 5 uM, timepoint 0, 0.75, 1.5, 3, 6, 9, 12 hours; conditions: 5 µM
[18] = The drug is tested on Bacteroides xylanisolvens strain: HM 722 for biotransformation under anaerobic condition. The drug concentrations were measured over 6 timepoints collected between 0 and 12 hours of incubation by liquid-chromatography-coupled mass spectrometry (LC–MS); parameters: dose 5 uM, timepoint 0, 1.5, 3, 6, 9, 12 hours; conditions: 5 µM
[19] = The drug is tested on Lactobacillus fermentum strain: DSM20052 for biotransformation under anaerobic condition. The drug concentrations were measured over 6 timepoints collected between 0 and 12 hours of incubation by liquid-chromatography-coupled mass spectrometry (LC–MS); parameters: dose 5 uM, timepoint 0, 1.5, 3, 6, 9, 12 hours; conditions: limosilactobacillus fermentum, 5 µM
[20] = The drug is tested on Akkermansia muciniphila strain: DSM22959 for biotransformation under anaerobic condition. The drug concentrations were measured over 6 timepoints collected between 0 and 12 hours of incubation by liquid-chromatography-coupled mass spectrometry (LC–MS); parameters: dose 5 uM, timepoint 0, 1.5, 3, 6, 9, 12 hours; conditions: 5 µM
[21] = as §1, with “the gut metagenome community of A-10 with ENA study accession number: PRJEB31790” for “Eubacterium eligens strain: DSM3376”, “7” for “6”; parameters: dose 5 uM, timepoint 0, 0.75, 1.5, 3, 6, 9, 12 hours; conditions: 5 µM
[22] = as §2, with “the gut metagenome community of A-09 with ENA study accession number: PRJEB31790” for “Lactobacillus ruminis strain: ATCC25644”, “7” for “6”; parameters: dose 5 uM, timepoint 0, 0.75, 1.5, 3, 6, 9, 12 hours; conditions: 5 µM
[23] = as §2, with “the gut metagenome community of P-04 with ENA study accession number: PRJEB31790” for “Lactobacillus ruminis strain: ATCC25644”, “7” for “6”; parameters: dose 5 uM, timepoint 0, 0.75, 1.5, 3, 6, 9, 12 hours; conditions: 5 µM
[24] = The drug is tested on Streptococcus sanguinis strain: DSM20567 for biotransformation under microaerobic condition. The drug concentrations were measured over 6 timepoints collected between 0 and 12 hours of incubation by liquid-chromatography-coupled mass spectrometry (LC–MS); parameters: dose 5 uM, timepoint 0, 1.5, 3, 6, 9, 12 hours; conditions: 5 µM
[25] = The drug is tested on Streptococcus salivarius strain: DSM20560 for biotransformation under microaerobic condition. The drug concentrations were measured over 6 timepoints collected between 0 and 12 hours of incubation by liquid-chromatography-coupled mass spectrometry (LC–MS); parameters: dose 5 uM, timepoint 0, 1.5, 3, 6, 9, 12 hours; conditions: 5 µM
[26] = The drug is tested on Blautia hansenii strain: DSM20583 for biotransformation under anaerobic condition. The drug concentrations were measured over 6 timepoints collected between 0 and 12 hours of incubation by liquid-chromatography-coupled mass spectrometry (LC–MS); parameters: dose 5 uM, timepoint 0, 1.5, 3, 6, 9, 12 hours; conditions: 5 µM
[27] = The drug is tested on Parabacteroides merdae strain: DSM19495 for biotransformation under anaerobic condition. The drug concentrations were measured over 6 timepoints collected between 0 and 12 hours of incubation by liquid-chromatography-coupled mass spectrometry (LC–MS); parameters: dose 5 uM, timepoint 0, 1.5, 3, 6, 9, 12 hours; conditions: 5 µM
[28] = The drug is tested on Lactobacillus ruminis strain: ATCC25644 for biotransformation under anaerobic condition. The drug concentrations were measured over 6 timepoints collected between 0 and 12 hours of incubation by liquid-chromatography-coupled mass spectrometry (LC–MS); parameters: dose 5 uM, timepoint 0, 1.5, 3, 6, 9, 12 hours; conditions: ligilactobacillus ruminis, 5 µM
[29] = The drug is tested on Alloscardovia omnicolens strain: DSM21503 for biotransformation under anaerobic condition. The drug concentrations were measured over 6 timepoints collected between 0 and 12 hours of incubation by liquid-chromatography-coupled mass spectrometry (LC–MS); parameters: dose 5 uM, timepoint 0, 1.5, 3, 6, 9, 12 hours; conditions: 5 µM

SMILES | Bacterial Biotransformation [1] | Bacterial Biotransformation [2] | Bacterial Biotransformation [3] | Bacterial Biotransformation [4] | Bacterial Biotransformation [5] | Bacterial Biotransformation [6] | Bacterial Biotransformation [7] | Bacterial Biotransformation [8] | Bacterial Biotransformation [9] | Bacterial Biotransformation [10] | Bacterial Biotransformation [11] | Bacterial Biotransformation [12] | Bacterial Biotransformation [13] | Bacterial Biotransformation [14] | Bacterial Biotransformation [15] | Bacterial Biotransformation [16] | Bacterial Biotransformation [17] | Bacterial Biotransformation [18] | Bacterial Biotransformation [19] | Bacterial Biotransformation [20] | also measured
C[C@]12CCC(=O)C=C1CC[C@@H]1[C@@H]2[C@@H](O)C[C@@]2(C)[C@H]1CC[C@]2(O)C(=O)CO [HYDROCORTISONE] | Compound NOT metabolized | Compound NOT metabolized | Compound NOT metabolized | Compound NOT metabolized | Compound NOT metabolized | Compound metabolized | Compound NOT metabolized | Compound metabolized | Compound NOT metabolized | Compound NOT metabolized | Compound metabolized | Compound NOT metabolized | Compound NOT metabolized | Compound NOT metabolized | Compound NOT metabolized | Compound NOT metabolized | Compound metabolized | Compound NOT metabolized | Compound NOT metabolized | Compound NOT metabolized | Bacterial Biotransformation [21]: Compound metabolized; Bacterial Biotransformation [22]: Compound metabolized; Bacterial Biotransformation [23]: Compound metabolized; Bacterial Biotransformation [24]: Compound NOT metabolized; Bacterial Biotransformation [25]: Compound metabolized; Bacterial Biotransformation [26]: Compound NOT metabolized; Bacterial Biotransformation [27]: Compound NOT metabolized; Bacterial Biotransformation [28]: Compound NOT metabolized; Bacterial Biotransformation [29]: Compound NOT metabolized
COc1c(C)c2c(c(O)c1C/C=C(\C)CCC(=O)O)C(=O)OC2 [MYCOPHENOLIC ACID] | Compound NOT metabolized | Compound NOT metabolized | Compound NOT metabolized | Compound NOT metabolized | Compound NOT metabolized | Compound NOT metabolized | Compound NOT metabolized | Compound NOT metabolized | Compound NOT metabolized | Compound NOT metabolized | Compound NOT metabolized | Compound NOT metabolized | Compound NOT metabolized | Compound NOT metabolized | Compound NOT metabolized | Compound NOT metabolized | Compound NOT metabolized | Compound NOT metabolized | Compound NOT metabolized | Compound NOT metabolized | Bacterial Biotransformation [21]: Compound NOT metabolized; Bacterial Biotransformation [22]: Compound NOT metabolized; Bacterial Biotransformation [23]: Compound NOT metabolized; Bacterial Biotransformation [24]: Compound NOT metabolized; Bacterial Biotransformation [25]: Compound NOT metabolized; Bacterial Biotransformation [26]: Compound NOT metabolized; Bacterial Biotransformation [27]: Compound NOT metabolized; Bacterial Biotransformation [28]: Compound NOT metabolized; Bacterial Biotransformation [29]: Compound NOT metabolized
CCC(C)(C)C(=O)O[C@H]1C[C@@H](C)C=C2C=C[C@H](C)[C@H](CC[C@@H]3C[C@@H](O)CC(=O)O3)[C@H]21 [SIMVASTATIN] | Compound NOT metabolized | Compound NOT metabolized | Compound NOT metabolized | Compound NOT metabolized | Compound NOT metabolized | Compound NOT metabolized | Compound NOT metabolized | Compound NOT metabolized | Compound NOT metabolized | Compound NOT metabolized | Compound metabolized | Compound NOT metabolized | Compound NOT metabolized | Compound NOT metabolized | Compound NOT metabolized | Compound NOT metabolized | Compound NOT metabolized | Compound NOT metabolized | Compound NOT metabolized | Compound NOT metabolized | Bacterial Biotransformation [21]: Compound NOT metabolized; Bacterial Biotransformation [22]: Compound NOT metabolized; Bacterial Biotransformation [23]: Compound NOT metabolized; Bacterial Biotransformation [24]: Compound NOT metabolized; Bacterial Biotransformation [25]: Compound NOT metabolized; Bacterial Biotransformation [26]: Compound NOT metabolized; Bacterial Biotransformation [27]: Compound NOT metabolized; Bacterial Biotransformation [28]: Compound NOT metabolized; Bacterial Biotransformation [29]: Compound NOT metabolized
